Results as given in US11840731B2, “Method for diagnosing and treating subjects having single nucleotide polymorphisms in chromosome 2, 2:107,510,000-107,540,000 locus” (NEURIM PHARMACEUTICALS (1991) LTD., priority 2021, dated 2023).
Marks after values point to notes of the source that are not given here.

Tests used:
[1] = test system: patients with early symptomatic Alzheimer's disease; test: computerized Neuropsychological Test Battery (cNTB), randomized placebo controlled study; type: in vivo, human; parameters: key to cNTB Improvement: ns = non-significant effect; deter = deterioration compared to placebo; settings: for cNTB: 5, 20 and 50 mg daily for 26 weeks, change from baseline
Protocol: DNA extraction and SNP genotyping were performed as follows: For 107 patients, whole blood was collected at the time of enrollment, and genomic DNA was extracted from peripheral lymphocytes using a commercial kit. Variant genotyping of a combined Whole Genome and Whole Exome sequencing, was performed. The detection of variants associated with the response of the treatment was performed through a genome wide association study (GWAS) analysis (which is a known case-control paradigm). […] The general case-control allelic test was performed through a Cochran-Armitage trend test. […] The stratification was assessed by a complete-linkage hierarchical clustering using the pairwise population concordance as a constraint. The SNP calling was done on the aligned BAM files using DRAGEN: […]

[2] = test system: patients with early symptomatic Alzheimer's disease; test: Alzheimer's Disease Assessment Scale cognitive subscale (ADAS-Cog14), randomized placebo controlled study; type: in vivo, human; parameters: key to ADAS-Cog14 Improvement: ns = non-significant effect; deter = deterioration compared to placebo
[3] = test system: patients with early symptomatic Alzheimer's disease; test: neuropsychiatric inventory (NPI), randomized placebo controlled study; type: in vivo, human; settings: for NPI Improvement: 20 mg daily for 26 weeks
[4] = test system: patients with early symptomatic Alzheimer's disease; test: sleep quality index (PSQI), randomized placebo controlled study; type: in vivo, human; settings: non-carriers (N = 23); 20 mg daily for 26 weeks
5-HT-1b receptor = target: T1, 5-HT-1b receptor (Rattus norvegicus, UniProt P28564); test: receptor binding assay, radioligand 125I CYP, rat cerebral cortex; settings: 5-HT1B
T1 construct: from tissue; host or cells: rat cerebral cortex
T1 sequence (P28564 whole entry): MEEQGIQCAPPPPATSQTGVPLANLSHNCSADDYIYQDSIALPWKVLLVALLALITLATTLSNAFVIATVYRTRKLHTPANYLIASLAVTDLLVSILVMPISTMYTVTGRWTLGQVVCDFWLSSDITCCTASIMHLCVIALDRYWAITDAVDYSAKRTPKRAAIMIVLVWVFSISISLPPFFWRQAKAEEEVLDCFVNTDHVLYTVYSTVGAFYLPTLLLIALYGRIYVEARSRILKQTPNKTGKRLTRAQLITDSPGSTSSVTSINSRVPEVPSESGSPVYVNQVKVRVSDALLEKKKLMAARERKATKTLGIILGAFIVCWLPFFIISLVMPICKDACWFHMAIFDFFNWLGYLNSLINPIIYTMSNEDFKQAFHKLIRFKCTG
Protocol: (§1) For receptor binding assays, stably expressing 5-HT1a, 1b, 1d and 2c receptors cells (HEK-293, rat cerebral cortex, CHO and HEK-293, respectively) were incubated with 0.3 or 1 nM of their respective radioligand (^3H-OH-DPAT, ^125I CYP, ^3H serotonin and ^3H-mesulergine) alone or in the presence of 1 nM to 10 μM of piromelatine. The bound radioligand was assessed. Non-specific binding was evaluated under the reaction contained with 8-OH-PTA, serotonin and RS-10221 (8-[5-(2,4-Dimethoxy-5-(4-trifluoromethylphenylsulphonamido)phenyl-5-oxopentyl]-1,3,8-triazaspiro[4.5]decane-2,4-dione hydrochloride).

5-HT-2a receptor = 5-HT-2a receptor (Homo sapiens, UniProt P28223); test: receptor binding assay; settings: 5-HT2A
Sequence of 5-HT-2a receptor (P28223 whole entry): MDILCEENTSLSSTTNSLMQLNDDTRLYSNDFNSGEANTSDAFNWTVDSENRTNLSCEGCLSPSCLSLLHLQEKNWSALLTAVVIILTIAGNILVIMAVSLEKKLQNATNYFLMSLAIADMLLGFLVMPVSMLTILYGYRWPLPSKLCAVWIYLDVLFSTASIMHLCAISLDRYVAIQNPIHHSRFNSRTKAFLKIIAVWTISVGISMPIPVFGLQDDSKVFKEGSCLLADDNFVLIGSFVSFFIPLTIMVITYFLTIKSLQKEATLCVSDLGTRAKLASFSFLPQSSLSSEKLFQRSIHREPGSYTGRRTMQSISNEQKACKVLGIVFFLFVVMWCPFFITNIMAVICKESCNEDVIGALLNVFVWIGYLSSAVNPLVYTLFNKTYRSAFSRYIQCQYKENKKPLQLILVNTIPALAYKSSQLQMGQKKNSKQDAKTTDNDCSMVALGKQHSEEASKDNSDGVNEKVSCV

5-HT-2b receptor = 5-HT-2b receptor (Homo sapiens, UniProt P41595); test: receptor binding assay; settings: 5-HT2B
Sequence of 5-HT-2b receptor (P41595 whole entry): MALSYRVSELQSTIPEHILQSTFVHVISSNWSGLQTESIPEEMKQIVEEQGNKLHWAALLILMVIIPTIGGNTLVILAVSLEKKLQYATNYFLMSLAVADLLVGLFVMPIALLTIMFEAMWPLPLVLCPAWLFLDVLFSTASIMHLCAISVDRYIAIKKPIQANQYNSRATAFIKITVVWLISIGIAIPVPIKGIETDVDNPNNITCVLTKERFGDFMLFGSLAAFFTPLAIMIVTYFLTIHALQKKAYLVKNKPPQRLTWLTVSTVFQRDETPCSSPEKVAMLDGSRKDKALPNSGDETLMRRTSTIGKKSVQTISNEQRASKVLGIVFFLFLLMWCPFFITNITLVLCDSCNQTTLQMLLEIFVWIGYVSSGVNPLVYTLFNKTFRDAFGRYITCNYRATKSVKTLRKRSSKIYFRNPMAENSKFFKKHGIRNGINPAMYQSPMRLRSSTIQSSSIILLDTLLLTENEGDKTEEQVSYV

5-HT-2c receptor = target: T2, 5-HT-2c receptor (Homo sapiens, UniProt P28335); test: receptor binding assay, radioligand 3H-mesulergine, HEK-293 cells; settings: 5-HT2C
T2 construct: expressed in transfected cells; host or cells: HEK-293
T2 sequence (P28335 33-458): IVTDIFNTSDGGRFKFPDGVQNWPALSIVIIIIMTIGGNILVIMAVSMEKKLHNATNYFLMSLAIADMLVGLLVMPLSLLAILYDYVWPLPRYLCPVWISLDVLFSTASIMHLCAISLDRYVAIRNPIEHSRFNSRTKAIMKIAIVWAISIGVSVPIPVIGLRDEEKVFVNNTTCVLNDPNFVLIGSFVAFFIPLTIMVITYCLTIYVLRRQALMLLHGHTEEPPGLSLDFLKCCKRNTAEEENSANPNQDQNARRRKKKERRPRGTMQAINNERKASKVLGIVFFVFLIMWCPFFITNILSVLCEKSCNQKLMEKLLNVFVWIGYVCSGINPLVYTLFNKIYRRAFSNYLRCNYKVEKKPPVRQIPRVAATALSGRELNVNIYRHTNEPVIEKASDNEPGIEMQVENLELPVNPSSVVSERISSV
Protocol: as §1

5-HT1a [5] = target: T3, 5-HT1a (Homo sapiens, UniProt P08908); test: functional assay, HTRF (cAMP or IP1); type: cell-based
T3 sequence (P08908 1-422): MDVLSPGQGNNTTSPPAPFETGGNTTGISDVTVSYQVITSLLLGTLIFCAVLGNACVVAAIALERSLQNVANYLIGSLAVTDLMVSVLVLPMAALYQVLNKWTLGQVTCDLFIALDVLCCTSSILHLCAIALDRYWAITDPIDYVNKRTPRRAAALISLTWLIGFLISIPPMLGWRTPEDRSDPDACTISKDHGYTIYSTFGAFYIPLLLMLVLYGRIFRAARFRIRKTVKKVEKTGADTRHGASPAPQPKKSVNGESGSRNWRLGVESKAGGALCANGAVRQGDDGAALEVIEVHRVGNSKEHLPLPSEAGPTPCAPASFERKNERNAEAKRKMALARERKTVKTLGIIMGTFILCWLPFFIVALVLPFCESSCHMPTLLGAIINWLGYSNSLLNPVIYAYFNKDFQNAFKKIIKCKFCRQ
Excerpt: (§2) For the functional assay, Homogeneous Time Resolved Fluorescence (HTRF) was used to measure cAMP or IP1 as products of the functional agonist or antagonist binding of 5-HT1a, 2a,2b, 2c, 4e, 6, 7 to their respective ligand (8-OG-DPAT or serotonin). Cellular dielectric spectroscopy was used to measure impedance as the product of the functional agonist or antagonist binding of 5HT1b and determine their respective ligand (serotonin).

5-HT1d = test: functional assay; type: cell-based; settings: 5-H 1d
5HT1b = 5HT1b (Homo sapiens, UniProt P28222); test: functional assay, cellular dielectric spectroscopy (impedance); type: cell-based
Sequence of 5HT1b (P28222 whole entry, species assumed): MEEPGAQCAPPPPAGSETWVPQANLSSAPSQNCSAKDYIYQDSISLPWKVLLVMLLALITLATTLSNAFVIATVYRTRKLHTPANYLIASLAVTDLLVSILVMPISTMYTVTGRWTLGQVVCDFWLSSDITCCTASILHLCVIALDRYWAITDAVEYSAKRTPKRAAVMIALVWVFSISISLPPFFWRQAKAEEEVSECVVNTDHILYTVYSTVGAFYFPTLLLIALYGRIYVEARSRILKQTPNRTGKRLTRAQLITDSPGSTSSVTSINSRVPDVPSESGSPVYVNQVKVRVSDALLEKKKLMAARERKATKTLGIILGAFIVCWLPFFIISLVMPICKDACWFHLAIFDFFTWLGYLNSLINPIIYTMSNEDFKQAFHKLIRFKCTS
Excerpt: as §2

[6] = test system: 60 different ion channels and receptors of different neurotransmitters and hormones; test: full profile of binding parameters, 60 receptor assays; settings: 10 μM; none of the 60 receptor assays significant
Protocol: A full profile of binding parameters to an additional 60 different ion channels and receptors of different neurotransmitters and hormones was performed (data not shown because none of the 60 receptor assays yielded a significant (>50%) inhibition by 10 μM of piromelatine).

[7] = test system: patients with early symptomatic Alzheimer's disease; test: computerized Neuropsychological Test Battery (cNTB), randomized placebo controlled study; type: in vivo, human
5-HT1a [8] = target: T3, 5-HT1a; test: receptor binding assay, radioligand 3H-OH-DPAT, HEK-293 cells; parameters: expressed in transfected cells; host or cells: HEK-293; settings: 5-HT1A
Protocol: as §1

[9] = locus polymorphism carriers, 5, 20 and 50 mg, 26 weeks, N = 19, vs placebo
[10] = locus polymorphism non-carriers, 5, 20 and 50 mg, 26 weeks, N = 59, vs placebo
[11] = whole study, n=352, 5, 20, and 50 mg daily for 6 months

affinity in words (5-HT-1b receptor): low affinity | affinity in words (5-HT-2a receptor): low affinity | affinity in words (5-HT-2b receptor): low affinity | affinity in words (5-HT-2c receptor): low affinity | agonist activity (5-HT1a [5]): moderate agonist activity | agonist activity (5HT1b): Low agonist activity | inhibition [6]: ≤ 50% | affinity in words (5-HT1a [8]): low affinity
Compound: COc1ccc2[nH]cc(CCNC(=O)c3cc(=O)cco3)c2c1 [piromelatine, N-(2-(5-methoxy-1H-indol-3-yl)ethyl)-4-oxo-4H-pyran-2-carboxamide]
cNTB Improvement ([1]; carriers (N = 12), 20 mg daily for 26 weeks): yes | cNTB attention domain composite score ([1]; carriers, 5 mg): improved | cNTB episodic memory domain composite score ([1]; carriers, 5 mg): improved | cNTB episodic memory domain composite score ([1]; carriers, 20 mg): improved | cNTB ([1]; locus polymorphism carriers, N = 19): 0.38* | cNTB Improvement [1, 9]: yes | cNTB ([1]; locus polymorphism non-carriers, N = 59): −0.04 | cNTB Improvement [1, 10]: ns | ADAS Cog14, Cohen's d vs placebo > 0.2 ([2]; carriers, 5 mg daily for 26 weeks): improvement | ADAS-Cog14 ([2]; locus polymorphism carriers, 5, 20 and 50 mg daily for 26 weeks, N = 19): 0.63* | ADAS-Cog14 Improvement [2, 9]: deter | ADAS-Cog14 Improvement [2, 10]: yes | ADAS-Cog14 Improvement ([2]; non-carriers (N = 23), 20 mg daily for 26 weeks): yes | ADAS Cog14, Cohen's d vs placebo > 0.20 ([2]; non-carriers, 5 mg daily for 26 weeks): no improvement | ADAS-Cog14, drug vs placebo [2, 11]: no statistically significant differences | NPI Improvement ([3]; carriers (N = 12)): yes | NPI aberrant movements ([3]; carriers, 20 mg): improvement | NPI Improvement ([3]; non-carriers (N = 23)): yes | PSQI Improvement [4]: yes | agonist activity (5-HT1d): moderate agonist activity | cNTB attention domain composite score ([7]; carriers, 20 mg): improved | global composite score of the cNTB, drug vs placebo [7, 11]: no statistically significant differences
